This note sets out measurements from patent US20240174714A1, “TREATMENT OF SKIN DISORDERS” (priority 2021, published 2024).

Where two headings read alike, the source gives them in different places. Square brackets hold non-standard residues; d marks the D form. Peptide text beside a SMILES is read from it. * marks the point of attachment. NH((S)CH(Me)CH2NMe2) = C[C@@H](CN(C)C)N*; NH(1-CH2NMe2-cBu) = CN(C)CC1(N*)CCC1; Gly(octyl) = CCCCCCCC[C@H](N)C(=O)O; Oxazole4CO(2-Me) = Cc1nc(C(=O)*)co1; Benzoyl(4-F) = O=C(c1ccc(F)cc1)*; hCha = N[C@@H](CCC1CCCCC1)C(=O)O; Pyrrole2CO = O=C(c1ccc[nH]1)*; X6 = O=C(c1ccnc2cc(Cl)ccc12)*; X10 = O=C(c1ccc2cccnc2c1)*; X12 = CN(C)CC1(N*)CCCC1; Aib = CC(C)(N)C(=O)O; X11 = CN(CCN*)CC(F)F; Bz = O=C(c1ccccc1)*; βAla = NCCC(=O)O

Series [1] relates to intracellular Leishmania donovani MHOM-ET-67/L82 amastigotes. Briefly: In vitro antiprotozoal assay, intracellular amastigotes. Type of series: cell-based.
Protocol: (§1) The testing of the inventive compounds against Leishmania donovani (strain MHOM/ET/67/L82) was performed in 96 well plates at concentrations in serial dilutions. Tests were done in triplicate.
Series [2] is described as follows: Cytotoxicity assay (Alamar Blue) on L6-cells. It is filed as cell-based, rat. On the procedure: Tests were done in triplicate.
The plates were incubated for additional 2 h.

The subject of series [3] is axenic Leishmania donovani MHOM-ET-67/L82 amastigotes. Briefly: In vitro antiprotozoal assay, axenic amastigotes. Type of series: cell-based.
Protocol: as §1
The mark [4] stands for this setting: intracellular amastigotes, read-out: L.don.InMac IC50.
[5] abbreviates: rat myoblast L6 cells, read-out: Cytotox L6 IC50.
Where [6] appears, read: axenic amastigotes, read-out: L.don.ax. IC50.

In the case of `CCCCCCCC[C@H](NC(=O)[C@@H]1CCCN1C(=O)c1ccccc1)C(=O)N[C@@H](CC(C)C)C(=O)NC(C)(C)C(=O)N[C@@H](CC(C)C)C(=O)N[C@@H](CC(C)C)C(=O)NC(C)(C)C(=O)NC(C)(C)C(=O)NCCC(=O)N[C@@H](C)CN(C)C` [Compound 5649, (2S)-2-{[(2S)-1-benzoylpyrrolidin-2-yl]formamido}-N-[(1S)-1-[(1-{[(1S)-1-{[(1S)-1-{[1-({1-[(2-{[(2S)-1-(dimethylamino)propan-2-yl]carbamoyl}ethyl)carbamoyl]-1-methylethyl}carbamoyl)-1-methylethyl]carbamoyl}-3-methylbutyl]carbamoyl}-3-methylbutyl]carbamoyl}-1-methylethyl)carbamoyl]-3-methylbutyl]decanamide] (Bz-P[Gly(octyl)]L[Aib]LL[Aib][Aib][βAla]-{NH((S)CH(Me)CH2NMe2)}), the half-maximal inhibitory concentration (IC50) in series [1] (setting [4]) was 27.2 nM; in series [3] (setting [6]), 3.5 nM. For the same molecule, the IC50 at 68 h in series [2] (setting [5]) came to 274 nM.
As for `CCCCCCCC[C@H](NC(=O)[C@@H]1CCCN1C(=O)c1ccnc2cc(Cl)ccc12)C(=O)N[C@@H](CC(C)C)C(=O)NC(C)(C)C(=O)N[C@@H](CC(C)C)C(=O)N[C@@H](CC(C)C)C(=O)NC(C)(C)C(=O)NC(C)(C)C(=O)NCCC(=O)N[C@@H](C)CN(C)C` [Compound 5768, (2S)-2-{[(2S)-1-(7-chloroquinoline-4-carbonyl)pyrrolidin-2-yl]formamido}-N-[(1S)-1-[(1-{[(1S)-1-{[(1S)-1-{[1-({1-[(2-{[(2S)-1-(dimethylamino)propan-2-yl]carbamoyl}ethyl)carbamoyl]-1-methylethyl}carbamoyl)-1-methylethyl]carbamoyl}-3-methylbutyl]carbamoyl}-3-methylbutyl]carbamoyl}-1-methylethyl)carbamoyl]-3-methylbutyl]decanamide] (X6-P[Gly(octyl)]L[Aib]LL[Aib][Aib][βAla]-{NH((S)CH(Me)CH2NMe2)}), the IC50 in series [1] (setting [4]) is 257 nM; in series [3] (setting [6]), 33.5 nM. For the same molecule, in series [2] (rat), the half-maximal inhibitory concentration (IC50) at 68 h was 627 nM.
Regarding `CCCCCCCC[C@H](NC(=O)[C@@H]1CCCN1C(=O)c1ccc2cccnc2c1)C(=O)N[C@@H](CC(C)C)C(=O)NC(C)(C)C(=O)N[C@@H](CC(C)C)C(=O)N[C@@H](CC(C)C)C(=O)NC(C)(C)C(=O)NC(C)(C)C(=O)NCCC(=O)N[C@@H](C)CN(C)C` [Compound 5938, (2S)-N-[(1S)-1-[(1-{[(1S)-1-{[(1S)-1-{[1-({1-[(2-{[(2S)-1-(dimethylamino)propan-2-yl]carbamoyl}ethyl)carbamoyl]-1-methylethyl}carbamoyl)-1-methylethyl]carbamoyl}-3-methylbutyl]carbamoyl}-3-methylbutyl]carbamoyl}-1-methylethyl)carbamoyl]-3-methylbutyl]-2-{[(2S)-1-(quinoline-7-carbonyl)pyrrolidin-2-yl]formamido}decanamide] (X10-P[Gly(octyl)]L[Aib]LL[Aib][Aib][βAla]-{NH((S)CH(Me)CH2NMe2)}), the IC50 at 68 h in series [2] (setting [5]) was 714 nM. Moreover, in series [3], the 50% inhibitory concentration (IC50) was 13 nM.
Regarding `CCCCCCCC[C@H](NC(=O)[C@@H]1CCCN1C(=O)c1ccc[nH]1)C(=O)N[C@@H](CC(C)C)C(=O)NC(C)(C)C(=O)N[C@@H](CC(C)C)C(=O)N[C@@H](CC(C)C)C(=O)NC(C)(C)C(=O)NC(C)(C)C(=O)NCCC(=O)N[C@@H](C)CN(C)C` [Compound 5939, (2S)-N-[(1S)-1-[(1-{[(1S)-1-{[(1S)-1-{[1-({1-[(2-{[(2S)-1-(dimethylamino)propan-2-yl]carbamoyl}ethyl)carbamoyl]-1-methylethyl}carbamoyl)-1-methylethyl]carbamoyl}-3-methylbutyl]carbamoyl}-3-methylbutyl]carbamoyl}-1-methylethyl)carbamoyl]-3-methylbutyl]-2-{[(2S)-1-(1H-pyrrole-2-carbonyl)pyrrolidin-2-yl]formamido}decanamide] (Pyrrole2CO-P[Gly(octyl)]L[Aib]LL[Aib][Aib][βAla]-{NH((S)CH(Me)CH2NMe2)}), the half-maximal inhibitory concentration (IC50) at 68 h in series [2] (rat) is 611 nM. Further, the IC50 in series [3] (setting [6]) turned out to be 8 nM.
In series [2] (rat), `CCCCCCCC[C@H](NC(=O)[C@@H]1CCCN1C(=O)c1coc(C)n1)C(=O)N[C@@H](CC(C)C)C(=O)NC(C)(C)C(=O)N[C@@H](CC(C)C)C(=O)N[C@@H](CC(C)C)C(=O)NC(C)(C)C(=O)NC(C)(C)C(=O)NCCC(=O)NC1(CN(C)C)CCC1` [Compound 6253, (2S)-N-[(1S)-1-[(1-{[(1S)-1-{[(1S)-1-({1-[(1-{[2-({1-[(dimethylamino)methyl]cyclobutyl}carbamoyl)ethyl]carbamoyl}-1-methylethyl)carbamoyl]-1-methylethyl}carbamoyl)-3-methylbutyl]carbamoyl}-3-methylbutyl]carbamoyl}-1-methylethyl)carbamoyl]-3-methylbutyl]-2-{[(2S)-1-(2-methyl-1,3-oxazole-4-carbonyl)pyrrolidin-2-yl]formamido}decanamide] ({Oxazole4CO(2-Me)}-P[Gly(octyl)]L[Aib]LL[Aib][Aib][βAla]-{NH(1-CH2NMe2-cBu)}) gave a 50% inhibitory concentration (IC50) at 68 h of 945 nM. Besides, in series [3] (setting [6]), the concentration for half-maximal inhibition (IC50) stood at 2.6 nM.
Molecule `CCCCCCCC[C@H](NC(=O)[C@@H]1CCCN1C(=O)c1coc(C)n1)C(=O)N[C@@H](CC(C)C)C(=O)NC(C)(C)C(=O)N[C@@H](CC(C)C)C(=O)N[C@@H](CC(C)C)C(=O)NC(C)(C)C(=O)NC(C)(C)C(=O)NCCC(=O)NC1(CN(C)C)CCCC1` [Compound 6254, (2S)-N-[(1S)-1-[(1-{[(1S)-1-{[(1S)-1-({1-[(1-{[2-({1-[(dimethylamino)methyl]cyclopentyl}carbamoyl)ethyl]carbamoyl}-1-methylethyl)carbamoyl]-1-methylethyl}carbamoyl)-3-methylbutyl]carbamoyl}-3-methylbutyl]carbamoyl}-1-methylethyl)carbamoyl]-3-methylbutyl]-2-{[(2S)-1-(2-methyl-1,3-oxazole-4-carbonyl)pyrrolidin-2-yl]formamido}decanamide] ({Oxazole4CO(2-Me)}-P[Gly(octyl)]L[Aib]LL[Aib][Aib][βAla]-X12) gave an IC50 at 68 h in series [2] (rat) of 528 nM. In series [3] (setting [6]), the IC50 was determined as 2.5 nM.
`Cc1nc(C(=O)N2CCC[C@H]2C(=O)N[C@@H](Cc2ccccc2)C(=O)N[C@@H](CC(C)C)C(=O)NC(C)(C)C(=O)N[C@@H](CC(C)C)C(=O)N[C@@H](CC(C)C)C(=O)NC(C)(C)C(=O)NC(C)(C)C(=O)NCCC(=O)NC2(CN(C)C)CCC2)co1` [Compound 6328, (2S)-N-(1-{[(1S)-1-{[(1S)-1-({1-[(1-{[2-({1-[(dimethylamino)methyl]cyclobutyl}carbamoyl)ethyl]carbamoyl}-1-methylethyl)carbamoyl]-1-methylethyl}carbamoyl)-3-methylbutyl]carbamoyl}-3-methylbutyl]carbamoyl}-1-methylethyl)-4-methyl-2-[(2S)-2-{[(2S)-1-(2-methyl-1,3-oxazole-4-carbonyl)pyrrolidin-2-yl]formamido}-3-phenylpropanamido]pentanamide] (HELM PEPTIDE1{[Cc1nc(C(=O)[*:2])co1].P.F.L.[Aib].L.L.[Aib].[Aib].[bAla].[CN(C)CC1(N[*:1])CCC1]}$$$$V2.0) registered an IC50 at 68 h in series [2] (rat) of 8720 nM. Further, in series [3] (setting [6]), the IC50 worked out at 381 nM.
Regarding `Cc1nc(C(=O)N2CCC[C@H]2C(=O)N[C@@H](CCC2CCCCC2)C(=O)N[C@@H](CC(C)C)C(=O)NC(C)(C)C(=O)N[C@@H](CC(C)C)C(=O)N[C@@H](CC(C)C)C(=O)NC(C)(C)C(=O)NC(C)(C)C(=O)NCCC(=O)NCCN(C)CC(F)F)co1` [Compound 6488, (2S)-2-[(2S)-4-cyclohexyl-2-{[(2S)-1-(2-methyl-1,3-oxazole-4-carbonyl)pyrrolidin-2-yl]formamido}butanamido]-N-(1-{[(1S)-1-{[(1S)-1-({1-[(1-{[2-({2-[(2,2-difluoroethyl)(methyl)amino]ethyl}carbamoyl)ethyl]carbamoyl}-1-methylethyl)carbamoyl]-1-methylethyl}carbamoyl)-3-methylbutyl]carbamoyl}-3-methylbutyl]carbamoyl}-1-methylethyl)-4-methylpentanamide] ({Oxazole4CO(2-Me)}-P[hCha]L[Aib]LL[Aib][Aib][βAla]-X11), the concentration for half-maximal inhibition (IC50) at 68 h in series [2] (setting [5]) was found to be 7180 nM. Also, in series [3] (setting [6]), the half-inhibitory concentration (IC50) is 429 nM.
`CC(C)C[C@H](NC(=O)[C@H](CCC1CCCCC1)NC(=O)[C@@H]1CCCN1C(=O)c1ccc(F)cc1)C(=O)NC(C)(C)C(=O)N[C@@H](CC(C)C)C(=O)N[C@@H](CC(C)C)C(=O)NC(C)(C)C(=O)NC(C)(C)C(=O)NCCC(=O)NCCN(C)CC(F)F` [Compound 8342, (2S)-2-[(2S)-4-cyclohexyl-2-{[(2S)-1-(4-fluorobenzoyl)pyrrolidin-2-yl]formamido}butanamido]-N-(1-{[(1S)-1-{[(1S)-1-({1-[(1-{[2-({2-[(2,2-difluoroethyl)(methyl)amino]ethyl}carbamoyl)ethyl]carbamoyl}-1-methylethyl)carbamoyl]-1-methylethyl}carbamoyl)-3-methylbutyl]carbamoyl}-3-methylbutyl]carbamoyl}-1-methylethyl)-4-methylpentanamide] ({Benzoyl(4-F)}-P[hCha]L[Aib]LL[Aib][Aib][βAla]-X11): the concentration for half-maximal inhibition (IC50) at 68 h in series [2] (setting [5]) is 6790 nM.
With `CCCCCCCCCCCCCCCCOP(=O)([O-])OCC[N+](C)(C)C` [Miltefosine, reference compound], the 50% inhibitory concentration (IC50) in series [1] (Leishmania donovani, reference compound, L.don.InMac, read-out: IC50 Concurrent) came to 162 nM; in series [3] (Leishmania donovani, reference compound, L.don.ax., read-out: IC50 Concurrent) it was 162 nM.
